Laboratory results: ChEMBL document CHEMBL1132801, “NMR analysis of tautomerisms of active pinacidil-type potassium channel openers and a less active one” (2000)

Tested on: Canis familiaris
Assay: The compound was tested for its antihypertensive activity in dogs after intravenous injection
Format: functional, Canis lupus familiaris

Row | Compound | Relative activity
1 | CCC(C)(C)/N=C(\NC#N)Nc1cc(Cl)cc(C#N)c1 | 2.04
2 | CC(N/C(=C\[N+](=O)[O-])Nc1ccccc1)C(C)(C)C (centres undefined) | 1.82
3 | CCC(C)(C)N/C(=C\C#N)Nc1cc(Cl)cc(C#N)c1 | <0.3
4 | CC(N/C(=N\C#N)Nc1ccncc1)C(C)(C)C (centres undefined) [PINACIDIL ANHYDROUS] | 1
